From patent publication US7989618B2, “Linezolid crystalline hydrate form and linezolid salts” (DiPharma Francis s.r.l., priority 2007, dated 2011)

Experiments:
[1] = hygroscopicity of the isolated solid; type: physicochemical; conditions: amorphous solid
[2] = as stated in US 2006/0142283 / WO 2005/035530; cited from earlier work
[3] = electrostatic character of the crystals; type: physicochemical; conditions: contrary to the known crystalline Form II

Molecule: Linezolid Sulfate
- hygroscopicity (in words) [1]: hygroscopic

Molecule: CC(=O)NC[C@H]1CN(c2ccc(N3CCOCC3)c(F)c2)C(=O)O1 [Form III, Linezolid Form III]
- electrostatic character and compactness compared with Form II (in words) [2]: more compact and less electrostatic than the Form II

Molecule: CC(=O)NC[C@H]1CN(c2ccc(N3CCOCC3)c(F)c2)C(=O)O1 [linezolid hemihydrate, Linezolid Hemihydrate]
- electrostatic character (in words) [3]: not electrostatic
